The text below walks through data of paper PMC12541610 (Acta Pharmaceutica Sinica. B, 2025).

As a reminder, the Kd is a measure of binding affinity in units of concentration. Read a high Kd as a looser complex.

In the assay the target is ATP synthase F1 subunit alpha (ATP5A1) (Mus musculus, UniProt Q03265). Nature of the assay: intrinsic fluorescence titration of purified protein. Type of assay: binding.
Sequence of ATP synthase F1 subunit alpha (ATP5A1) (Q03265 whole entry): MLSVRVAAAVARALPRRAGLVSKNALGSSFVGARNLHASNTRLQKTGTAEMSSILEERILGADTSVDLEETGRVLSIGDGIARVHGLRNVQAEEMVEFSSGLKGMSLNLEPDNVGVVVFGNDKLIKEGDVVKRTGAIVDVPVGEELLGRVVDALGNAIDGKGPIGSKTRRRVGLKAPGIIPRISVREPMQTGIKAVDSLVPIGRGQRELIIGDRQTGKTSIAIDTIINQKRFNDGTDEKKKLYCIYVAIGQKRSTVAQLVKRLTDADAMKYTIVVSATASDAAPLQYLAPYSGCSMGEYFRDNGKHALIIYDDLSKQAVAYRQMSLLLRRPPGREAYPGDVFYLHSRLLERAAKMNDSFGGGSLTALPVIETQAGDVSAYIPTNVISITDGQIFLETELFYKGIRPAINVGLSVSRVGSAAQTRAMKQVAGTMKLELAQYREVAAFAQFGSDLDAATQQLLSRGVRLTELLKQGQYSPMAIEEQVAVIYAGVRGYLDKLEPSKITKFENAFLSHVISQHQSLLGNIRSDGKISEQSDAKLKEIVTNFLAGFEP

The compound `C=C(C)[C@@H]1CCC(C)=C[C@H]1c1c(O)cc(CCCCC)cc1O` [Cannabidiol] displayed a Kd of 4.9 ± 1.2 µM.
